In one series the test system is Lactobacillus casei. Description: Inhibition of bacterial growth (optical density after 24 hours). In kind it is cell-based. To be noted: L.casei; for IC50: 24 hours at 37°C, means of triplicate experiments, read-out: ID/50 (the source's name); for ID/50: recalculated as ppm F, 1440 min. The source says: (§1) Cariogenic Bacteria used for testing the effect of Sn(^NH4)2F6 were Streptococcus mutans (strains coded 6715 and OMZ-176), Streptococcus sanguis (strains coded 10556 and 10557), Streptococcus salivarius (strains coded SS4 and H257), and Lactobacillus casei. All of the above organisms were maintained as lyophilised cultures until the time for use.
(§2) It is generally agreed that oral bacteria are responsible for tooth decay. Therefore, a reduction of the cariogenic flora usually results in a decrease in caries formation. The inhibitory action of the test compounds was. determined by adding each salt, at known concentrations, to a culture of cariogenic bacteria. After 24 hours at 37°C bacterial growth was monitored as a change in optical density. A dose response curve (concentration of salt vs. growth) for each compound against each bacterial isolate was plotted in order to obtain the concentration of test agent which would cause a 50% inhibition in growth (ID/50). This is a useful ranking index since it is not always possible to obtain complete inhibition with weak germicidal agents. Only those compounds which were able to elicit an ID/50 response were considered as inhibitory agents.
(§3) The medium used for bacterial growth experiments was Trypticase Soy Broth (B.B.L.: Baltimore Biological Labs., Baltimore, MD) supplemented with 0.1% Tween 80 (the word Tween is a trade mark) and 0.05% sodium thioglycollate. The test organisms, as lyophilised cells, were grown overnight in 50 mls of growth medium in a vacuum desiccator with an atmosphere of 97% CO /3% H2 at 35°C. These cultures were then used at a 0.2% inoculum to prepare second stage seed flasks. The test media (10ml) consisting of growth medium plus the potential inhibitors, contained in 16 x 120 mm screw top test tubes, were inoculated with the second stage seed cultures to given an absorbancy reading of 0.05. Immediately after inoculation the cultures were incubated for 24 hours under anaerobic conditions.
(§4) The growth medium was sterilised by autoclaving, whereas the potential inhibitors (as aqueous solutions) were sterilised by filtering each solution separately through a Millipore membrane (0.22 /u).
(§5) Absorbance at 600 nm versus a medium control was used as a measure of growth on a Beckman Model B spectrophotometer. All absorbancy readings were determined in 16 mm x 120 mm Kimax test tubes. This instrument was linear to 0.60 OD units; thus, all cultures displaying values above this range were diluted with the control, accordingly.

The test system of series [1] is Streptococcus mutans 6715. The series is described as above. In kind it is cell-based. The following applies: S.mutans 6715; recalculated as ppm F; 1440 min.
From the text: as §1, §2, §3, §4, §5

For series [2], the system named is Streptococcus mutans OMZ-176. The series is described as above. Type of series: cell-based. The following applies: S.mutans OMZ-176; for IC50: 24 hours at 37°C, means of triplicate experiments, read-out: ID/50 (the source's name); for ID/50: recalculated as ppm F, 1440 min.
From the text: as §1, §2, §3, §4, §5

For series [3], the system named is Streptococcus salivarius H257. Described as above. The following applies: S.salivarius H-257; for IC50: 24 hours at 37°C, means of triplicate experiments, read-out: ID/50 (the source's name); for ID/50: recalculated as ppm F, 1440 min. Type of series: cell-based.
From the text: as §1, §2, §3, §4, §5

For series [4], the system named is Streptococcus salivarius SS4. The description is as above. Type of series: cell-based. The following applies: S.salivarius SS4; for IC50: 24 hours at 37°C, means of triplicate experiments, read-out: ID/50 (the source's name); for ID/50: recalculated as ppm F, 1440 min.
From the text: as §1, §2, §3, §4, §5

Series [5] has as its system Streptococcus sanguis 10556. The series is described as above. In kind it is cell-based. To be noted: S.sanguis 10556; for IC50: 24 hours at 37°C, means of triplicate experiments, read-out: ID/50 (the source's name); for ID/50: recalculated as ppm F, 1440 min.
From the text: as §1, §2, §3, §4, §5

Series [6] has as its system Streptococcus sanguis 10557. Described as above. Type of series: cell-based. To be noted: S.sanguis 10557; for IC50: 24 hours at 37°C, means of triplicate experiments, read-out: ID/50 (the source's name); for ID/50: recalculated as ppm F, 1440 min.
From the text: as §1, §2, §3, §4, §5

A further series in a line: pH of aqueous solution. Type of series: physicochemical. From the text:
An aqueous solution of Sn(NH4)2F6 has a ^pH of about 3.8 as compared to a pH of 3.0 for SnF2. This higher pH characteristic eliminates some of the formulation problems encountered with the strong acid effect of SnF2. The preferred pH of oral compositions containing ^Sn(NH4)2F6 is from 3.5 to 8.0. A 1000 ppm F^- solution of Sn(NH4)2F6 was stable.

Series [7] in a line: Stability of aqueous solution on standing (haze / turbidity). Type of series: physicochemical. The following applies: 1000 ppm F- solution of Sn(NH4)2F6 on standing several weeks; SnF2 solution after 24 hours at room temperature.
Series [8] in a line: Ionisation: release of available F. In kind it is physicochemical. The source says:
The corresponding values for Na2SnF6 are 73% and 38%, respectively. Thus Na2SnF6 is less ionised than Sn(NH4)2F6.

The conditions of series [9]: applied topically to the teeth; Caries Res. 3, 315-325, 1969; cited from earlier work.
The mark [10] stands for this setting: concentration equivalent to 1000 ppm.
The mark [11] stands for this setting: concentration equivalent to 2500 ppm.

These results are taken from patent publication EP0121013A1, “Oral compositions” (UNILEVER PLC, priority 1983, dated 1984).

Turning to `[F][Sn][F]` [SnF2], the IC50 in the series on Lactobacillus casei amounted to 2970 µM; in series [2], 2280 µM; in series [3] it was 740 µM; in series [4], 2450 µM; in [5], 440 µM; in series [6], 840 µM. Moreover, the ID/50 in the series on Lactobacillus casei is listed as 113 ppm F; in series [1], 56 ppm F; in [2] it was 87 ppm F; in series [3], 29 ppm F; in [4] it was 93 ppm F; in series [5] it was 17 ppm F. Besides, in [6], the ID/50 was 32 ppm F. Moreover, the pH in “pH of aqueous solution” is on record as 3.0. The stability of solution result in [7] is listed as “developed turbidity”. The “released available F” value in [8] (setting [10]) worked out at 80%; in series [8] (setting [11]), 45%.
Turning to `[Cl][Sn][Cl]` [SnCl2], the IC50 with Lactobacillus casei is 3000 to 6000 µM.
Turning to `[F-].[Na+]` [NaF], the IC50 is above 12000 µM in the series with Lactobacillus casei; 16300 µM in series [2]; 3770 µM in series [3]; 13400 µM in series [4]; 1180 µM in [5]; 1820 µM in [6]. In addition, the ID/50 is recorded as 352 ppm F in the series with Lactobacillus casei; 138 ppm F in series [1]; 309 ppm F in [2]; 72 ppm F in series [3]; 255 ppm F in [4]; 22 ppm F in [5]. Besides, in [6], the ID/50 is on record as 35 ppm F.
Turning to `[F-].[F-].[F-].[F-].[F-].[F-].[Na+].[Na+].[Sn+4]` [Na2SnF6, sodium hexafluorostannate], the “released available F” value in series [8] (setting [10]) came to 73%; in series [8] (setting [11]) it was 38%. Also, the caries inhibiting effect entry in [9] was “has a caries inhibiting effect”.
As to `N.N.[F-].[F-].[F-].[F-].[F-].[F-].[Sn]` [Sn(NH4)2F6, stannic ammonium fluoride], the IC50 with Lactobacillus casei came out at 2530 µM; in series [2], 1430 µM; in series [3], 400 µM; in series [4] it was 1650 µM; in series [5], 220 µM; in [6], 390 µM. The ID/50 in the series with Lactobacillus casei is recorded as 288 ppm F; in series [1], 137 ppm F; in series [2] it was 163 ppm F; in series [3], 46 ppm F; in series [4] it was 188 ppm F; in series [5], 25 ppm F. The ID/50 in series [6] is 45 ppm F. In addition, the pH entry in the series “pH of aqueous solution” was “about 3.8”. Also, the stability of solution entry in series [7] was “stable”. Moreover, the “released available F” value in series [8] (setting [10]) and in series [8] (setting [11]) was “the same ionisation values as SnF2” throughout.
